“And” between values parts separate entries of the source, which are not always exact repeats. Identical values can stand only once.

One data set has as its system glutathione-peroxidase. As to the kind of experiment: In vivo effect of the additive on glutathione-peroxidase activity in plasma. On the set-up: species or system human. The protocol: In vivo effect to the additive according to the invention on the glutathione-peroxidase activity in plasma.
(§1) For three weeks a quantity of 3 microgrammes of Se in the form of the additive according to the invention was administered daily to a child suffering from Protein Lysine Intolerance (PLI).

A short description of data set [1]: Se content in plasma during supplementation. The note with it: child with Protein Lysine Intolerance, additive 3 microgrammes Se daily for three weeks, selenite as second supplementation after 13 months, successive samples. The protocol:
as §1

In the case of `O=[Se](O)O` [selenite], the “glutathione peroxidase activity in the plasma (change during supplementation, in words)” value with glutathione-peroxidase (child with PLI, during supplementation) is “no increase”. The glutathione-peroxidase activity in the data set with glutathione-peroxidase (plasma, child with Protein Lysine Intolerance, additive 3 microgrammes Se daily for three weeks, selenite as second supplementation after 13 months, successive samples) is 0.13 U/ml and 0.12 U/ml. Also, the Se-content in data set [1] is 20 ng/mL and 22 ng/mL and 24 ng/mL and 23 ng/mL.

For the origin of these results see US6479050B1, “Trace element-rich additive, method for preparing same, preparation in which the additive is included and use thereof” (Innovi N.V., priority 1991, dated 2002).
